Where “and” joins values, the source holds several entries; their conditions need not be identical. Equal entries are not always repeated. Entries after “also recorded” stand apart in the source; their conditions may differ.
How the values were obtained:
[1] = system: arachidonic acid-induced inflammation in mouse ears; test: arachidonic acid-induced inflammation in mouse ears; format: in vivo; details: for Ear Thickness: 20 nanomoles/ear topical 30 min before arachidonic acid, measured 60 min after arachidonic acid, control 56.5 ± 1.57
Protocol: Arachidonic Acid (Nu-Chek, Elysian, Minn. 56028); Indomethacin (stock=12.5 mg/mL acetone). Prednisolone (Sigma Chem, P6004) 20 mM dissolved in acetone; Animals: Female Balb/c mice (B&K laboratories) and Swiss-Webster hybrid (B& K Laboratory, Kent, Wash.)
The right ear of each mouse was used for the test compound. Unless otherwise indicated each compound was adjusted to 20 mM by dilution into DMSO or DMSO/5% Pluronic F127 as indicated and 1 or 2 microliters were applied to the test ear. Thirty minutes after each compound was applied, 4 mg arachidonic acid was applied (4 μL/ear; 2 μL/side) to both ears of each mouse. Measurements of edema were taken 60 min after the application of arachidonic acid with microcalipers (Oditest, Scientific Supply and Equipment) unless otherwise indicated. The results are shown in FIG. 15 as millimeters×10^−2 measured at the thickest point of each ear. Control measurements were performed on ears that were only treated with arachidonic acid.
Response to prednisolone (20 μL of 20 mM/ear; 10 μl/side) added 3 hrs prior 20′ to arachidonic acid or indomethacin (5 μg/ear) added 30 min prior to test compounds was determined. The results are shown in Table A, where the anti-inflammatory/inflammatory effects of 20 nanomoles/ear of the indicated compounds were tested as described in Methods. Each plus represents a change from control (arachidonic acid alone) of 2.5 mm×10^−2. Effects were compared with those of Indomethacin (400 nmols/ear).
Acute inflammation: Membrane permeant inositol polyphosphate analogs were administered topically and tested for inhibition of inflammatory symptoms induced by arachidonic acid on the ear of Swiss Webster mice.

T84 cells = test: Colonic Epithelial Cell Assay (Isc across T84 monolayers, Ussing chambers); format: cell-based, human; details: for Isc response to carbachol / inhibition of the Isc response to carbachol / Isc response to thapsigargin following carbachol: 30 min preincubation; for increase in short circuit current (Isc): T84 monolayers in Ussing chambers, differing concentrations (text: colonic and airway epithelial cells)
Protocol: Cl^− secretion in colonic epithelial cells was measured as short circuit current (Isc) across T84 monolayers grown to confluence on Snap-wells (Costar) and mounted in Ussing chambers equipped with voltage clamps (Physiologic Instruments, San Diego). Data was acquired and analyzed using AAcquire and Analyze@ software (Physiologic Instruments). T84 cells (passages 18-48) were maintained as described previously in McRoberts, J. A. et al., “Cyclic AMP and Ca^2+-activated K^+ transport pathway in the apical membrane of a human colonic epithelial cell line,” J. Biol. Chem. 260:14163-14172 (1985). After […] of incubation on Snap-wells, monolayers had formed tight junctions and were preincubated with […] Bt2D-myo-Ins(3,4,5,6)P4/AM for 30-min. prior to mounting. An extracellular concentration of 200 uM corresponds to an intracellular concentration of 4 uM (Vajanaphnich, et al., “Long-term uncoupling of chloride secretion from intracellular calcium levels by Ins(3,4,5,6)P4,” Nature 371:711-714 (1994)). […]

[2] = system: CF Human Nasal Epithelial (CFHNE) cells; test: Cystic Fibrosis Human Nasal Epithelial Cell Assay (Isc, Ussing chambers); format: cell-based
Protocol: CF Human Nasal Epithelial (CFHNE) Cell Isolation and Proliferation
Nasal Polyps were surgically obtained from a CF patient at Children's Hospital (Seattle, Wash.), transported on ice in a sterile container containing a 1:1 mixture of Dulbecco's modification of minimum essential medium Eagle and Ham's F-12 nutrient medium (DMEM/F-12) (Irvine Scientific, Santa Ana, Calif.) supplemented with 100 U/mL penicillin, 0.1 mg/mL streptomycin, 10 mM HEPES, and 2 mM L-glutamine. The tissue samples were aseptically removed from the transport medium and washed (repeated 5 times) by suspending in 40 mL of Joklik's modification of minimum essential medium Eagle (JMEM) at 4° C., and centrifuging at 500 rpm. The supernatant was aspirated and discarded. The tissue was then transferred to JMEM containing 200 U/mL penicillin, 0.2 mg/mL streptomycin, 0.1 mg/mL gentamycin sulfate (Clonetics, San Diego, Calif.), and 0.1 μg/mL amphotericin-B (Clonetics), and 0.1% Protease, washed an additional two times, suspended in […] in a 10 cm tissue culture dish, and incubated at 4° C. for 24 hours. The tissue samples were then gently triturated, the connective tissue aseptically removed, and the remaining cell suspension centrifuged at 1000 rpm. The supernatant was aspirated and the pellet was resuspended in 10 mL proliferation media, consisting of Keratinocyte-Serum Free Medium (KSFM) (Gibco-BRL, Grand Island, N.Y.) containing 5 ng/ml EGF (Gibco), 50 μg/mL BPE (Gibco), 5 μg/mL insulin, 5 μg/mL transferrin, 5 μg/ml sodium selenite, 10 nM 3,3′,5-triiodo-L-thyronine, 200 nM hydrocortisone, 100 U/mL penicillin, 0.1 mg/mL streptomycin, and 2 mM L-glutamine. The cell suspension was transferred to 2.10 cm tissue culture dishes coated with 3 μg/cm^2 rat-tail collagen (Type I) (Becton-Dickinson, Bedford, Mass.), incubated at 37° C. in an humidified atmosphere of 5% CO2 and 95% air. The cells were allowed to grow for 6 days (˜70% confluence) with the media being replaced with fresh media every other day. The cells were then trypsinized using 0.025% trypsin-EDTA for 5 min. The cell suspension was collected, the trypsin deactivated with 10% Fetal Bovine Serum, and centrifuged at 1000 rpm for 5 min. The cells were then counted using an hemocytometer with a yield of 3×10^6 cells per dish. The supernatant was aspirated and the cells were resuspended in KSFM and plated at a density of 10^4 cells/cm^2.
CFHNE Cell Ussing Chamber Preparation
The CFHNE cells were prepared for Ussing Chamber studies using Snapwell permeable supports (0.4 μm pore size) (Corning Costar, Cambridge, Mass.) coated with 3 μg/cm^2 rat-tail collagen (type 1). Cells were plated at 9×10^3 cells/cm^2 in KSFM. After 2 days, an air-liquid interface (ALI) was initiated in DMEM/F-12 containing: 2% Fetal Clone III (Hyclone, Logan, Utah), 2.5 μg/mL insulin, 2.5 μg/mL transferrin, 2.5 μg/mL sodium selenite, 20 nM hydrocortisone, 1.5 μM epinephrine, 50 μg/mL BPE, 1 nM 3,3′,5-triiodo-L-thyronine, 3.3 nM All-trans retinoic acid, 250 nM ethanolamine, 250 nM O-phosporylethanolamine, 100 U/mL penicillin, 0.1 mg/ml streptomycin, and 2 mM L-glutamine. The CFHNE monolayers reached maximal resistance (˜200 Ω/cm^2) 5-7 days after initiation of ALI. All media/reagents, unless otherwise specified, were supplied by Sigma Chemical Co., St. Louis, Mo.

[3] = topical, ear of Swiss Webster mice

2,3,5-tri-O-butyryl-myo-inositol 1,4,6-trisphosphate hexakis-(acetoxymethyl) ester [TMX/AM]
Ear Thickness [1]: 44.1 ± 2.3 mm × 10^−2

COCCOCOC12CCCCOC1C(OP(=O)(OCOC(C)=O)OCOC(C)=O)C(OP(=O)(OCOC(C)=O)OCOC(C)=O)C(OP(=O)(OCOC(C)=O)OCOC(C)=O)C2OP(=O)(OCOC(C)=O)OCOC(C)=O (centres unmarked) [Compound C, (5aa,6a,7b,8a,9b,9aa)-6,7,8,9-tetrakis[[bis(acetoxymethoxy)-phosphoryl]oxy]-5a-[(2′-methoxy)ethoxy]methoxy-decahydro-benzo[b]oxepin]
Isc response to carbachol (T84 cells; 200 μM, T84): reduces the magnitude
inhibition of the Isc response to carbachol (T84 cells; 200 μM, T84): approximately 50%
Isc response to carbachol (T84 cells; 400 μM, T84): reduces the magnitude
Isc response to thapsigargin following carbachol (T84 cells; 400 μM, T84): partially restores the response of the monolayers to thapsigargin
inhibition of the Isc response to carbachol (T84 cells; 400 μM, T84): approximately 50%
Ear Thickness [1]: 50.0 ± 5.5 mm × 10^−2

CCCC(=O)O[C@@H]1[C@H](OC(=O)CCC)[C@H](OP(=O)(OCOC(=O)CC)OCOC(=O)CC)[C@@H](OP(=O)(OCOC(=O)CC)OCOC(=O)CC)[C@H](OC(=O)CCC)[C@H]1OP(=O)(OCOC(=O)CC)OCOC(=O)CC [ent-TMX, 1,2,5-tri-O-butyryl-myo-inositol 3,4,6-trisphosphate hexakis-(proprionoxymethyl) ester]
increase in short circuit current (Isc) (T84 cells): inactive

CCCC(=O)OC12CCCOC1C(OP(=O)(OCOC(C)=O)OCOC(C)=O)C(OP(=O)(OCOC(C)=O)OCOC(C)=O)C(OP(=O)(OCOC(C)=O)OCOC(C)=O)C2OP(=O)(OCOC(C)=O)OCOC(C)=O (centres unmarked) [Compound G, (4aa, 5a,6b,7a,8b,8aa)-5,6,7,8-tetrakis[[bis(acetoxymethoxy)-phosphoryl]oxy]-4a-butyryloxy-octahydro-chromen]
Isc response to carbachol (T84 cells; 200 μM, T84): did not affect
Isc response to thapsigargin following carbachol (T84 cells; 200 μM, T84): reversed the inhibition of thapsigargin induced chloride secretion; also recorded: reverses the carbachol-mediated inhibition of thapsigargin-stimulated increase in Isc

CCCC(=O)OC1C(OC(=O)CCC)C(OP(=O)(OCOC(=O)CC)OCOC(=O)CC)C(OP(=O)(OCOC(=O)CC)OCOC(=O)CC)C(OP(=O)(OCOC(=O)CC)OCOC(=O)CC)C1OP(=O)(OCOC(=O)CC)OCOC(=O)CC [D-2,3-Di-O-butyryl-myo-inositol 1,4,5,6 tetrakisphosphate octakis(propionoxymethyl)ester]
topical anti-inflammatory effects, values [1, 3]: 0.25-1.5 μg/animal

Nc1ncnc2c1ncn2[C@@H]1O[C@H](COP(=O)(O)OP(=O)(O)OP(=O)(O)O)[C@@H](O)[C@H]1O [ATP, adenosine triphosphate, reference compound]
Isc after ATP ([2]; ATP 10^−4 M, monolayers pretreated with vehicle): transient increase in Isc followed by a prolonged decrease

2,3,5-tri-O-butyryl-myo-inositol 1,4,6-trisphosphate hexakis(proprionoxymethyl)ester [TMX]
prolonged decrease in Isc after ATP (negative component of the ATP effect) ([2]; CFHNE monolayers exposed to TMX for 10 min, ATP 10^−4 M): attenuated; also recorded: reverse the negative component of the ATP effect on Isc
increase in short circuit current (Isc) (T84 cells): prolonged increase in Isc similar to cyclic AMP

N=C(N)NC(=O)c1nc(Cl)c(N)nc1N [Amiloride, amiloride, reference compound]
decrease in Isc ([2]; amiloride 100 μM, apical compartment, in 19 of 23 monolayers): 1.01 μAmps/cm^2

CC(=O)OCOP(=O)(OCOC(C)=O)O[C@@H]1[C@@H](OP(=O)(OCOC(C)=O)OCOC(C)=O)[C@@H]2O[C@H]3CCC[C@@]2(O3)[C@H](OP(=O)(OCOC(C)=O)OCOC(C)=O)[C@H]1OP(=O)(OCOC(C)=O)OCOC(C)=O [Tri-cyclo, (1S, 2R, 3S, 4R, 5S, 6S, 8R)-2,3,4,5-tetrakis[[bis-(acetoxymethoxy)phosphoryl]oxy]-7,12-dioxa-tricyclo-[6.3.1.0(1,6)]-dodecane]
Ear Thickness [1]: 49.8 ± 2.5 mm × 10^−2

CCCC(=O)OC1C(OP(=O)(OCOC(C)=O)OCOC(C)=O)C(OP(=O)(OCOC(C)=O)OCOC(C)=O)C(OP(=O)(OCOC(C)=O)OCOC(C)=O)C(OP(=O)(OCOC(C)=O)OCOC(C)=O)C1(CCC)OP(=O)(OCOC(C)=O)OCOC(C)=O (racemic) [Compound D, rac-1-O-butyryl-2-C-propyl-myo-inositol 2,3,4,5,6-pentakisphosphate-dekakis(acetoxymethyl) ester]
basal Isc (T84 cells; 200 μM, acute treatment, T84): small increase in basal Isc; also recorded: small acute effect increasing basal Isc
subsequent carbachol-stimulated Isc (T84 cells; 200 μM, acute treatment, T84): little effect
Ear Thickness [1]: 44.0 ± 1.4 mm × 10^−2 and 44.2 ± 6.5 mm × 10^−2

CCCC(=O)OC1C(OC(=O)CCC)C(OP(=O)(OCOC(C)=O)OCOC(C)=O)C(OP(=O)(OCOC(C)=O)OCOC(C)=O)C(OP(=O)(OCOC(C)=O)OCOC(C)=O)C1OP(=O)(OCOC(C)=O)OCOC(C)=O [D-2,3-Di-O-butyryl-myo-inositol 1,4,5,6 tetrakisphosphate octakis(acetoxymethyl)ester, reference compound]
dose with inhibitory effect comparable in intensity to that of indomethacin (250 μg/animal) [1, 3]: 20-30 μg/animal
